Results on two molecules are retold here after ChEMBL document CHEMBL4507291 (2021).

The target of test [1] is T1, Alpha-1D adrenergic receptor (Homo sapiens) (UniProt P25100).
T1 sequence (whole entry): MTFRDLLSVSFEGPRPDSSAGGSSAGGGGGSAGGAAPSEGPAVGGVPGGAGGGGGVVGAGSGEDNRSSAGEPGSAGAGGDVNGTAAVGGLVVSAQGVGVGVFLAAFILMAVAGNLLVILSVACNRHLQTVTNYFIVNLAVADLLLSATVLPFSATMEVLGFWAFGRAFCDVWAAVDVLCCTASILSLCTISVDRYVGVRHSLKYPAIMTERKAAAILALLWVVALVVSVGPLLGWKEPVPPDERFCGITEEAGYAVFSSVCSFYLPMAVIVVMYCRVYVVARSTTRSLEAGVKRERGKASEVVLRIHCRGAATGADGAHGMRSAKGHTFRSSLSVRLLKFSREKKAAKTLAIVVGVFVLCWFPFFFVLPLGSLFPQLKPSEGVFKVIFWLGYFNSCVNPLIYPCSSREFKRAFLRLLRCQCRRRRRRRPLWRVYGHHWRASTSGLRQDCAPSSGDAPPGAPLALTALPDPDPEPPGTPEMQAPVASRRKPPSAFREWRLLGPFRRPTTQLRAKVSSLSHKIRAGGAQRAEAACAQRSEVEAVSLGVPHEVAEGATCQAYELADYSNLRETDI
Description: Inhibition of Adrenergic alpha1D at 10 µM in the Eurofins-Panlabs radioligand binding assay (Eurofins_assay_203400). Conditions: Compound concentration 10.0 uM; call rule not given here.

In test [2] the target is Melanocortin receptor 4 (Homo sapiens) (UniProt P32245). Briefly: Inhibition of Melanocortin MC4 at 10 µM in the Eurofins-Panlabs radioligand binding assay (Eurofins_assay_251350). Further details: ligand concentration 0.02 nM. As to conditions: Compound concentration 10.0 uM.
Test [3] has as its system Tyrosine-protein kinase ABL1 (Homo sapiens), P00519 [G250E]. Briefly: ABL1 G250E Kinase screen. Conditions: Compound concentration 1.0 uM.
Test [4] addresses Tyrosine-protein kinase ABL2 (Homo sapiens) (UniProt P42684). Description: ABL2 (Arg) Kinase screen. As to conditions: Compound concentration 1.0 uM.
Test [5] addresses T2, Activin receptor type-1B (Homo sapiens) (UniProt P36896).
T2 sequence (whole entry): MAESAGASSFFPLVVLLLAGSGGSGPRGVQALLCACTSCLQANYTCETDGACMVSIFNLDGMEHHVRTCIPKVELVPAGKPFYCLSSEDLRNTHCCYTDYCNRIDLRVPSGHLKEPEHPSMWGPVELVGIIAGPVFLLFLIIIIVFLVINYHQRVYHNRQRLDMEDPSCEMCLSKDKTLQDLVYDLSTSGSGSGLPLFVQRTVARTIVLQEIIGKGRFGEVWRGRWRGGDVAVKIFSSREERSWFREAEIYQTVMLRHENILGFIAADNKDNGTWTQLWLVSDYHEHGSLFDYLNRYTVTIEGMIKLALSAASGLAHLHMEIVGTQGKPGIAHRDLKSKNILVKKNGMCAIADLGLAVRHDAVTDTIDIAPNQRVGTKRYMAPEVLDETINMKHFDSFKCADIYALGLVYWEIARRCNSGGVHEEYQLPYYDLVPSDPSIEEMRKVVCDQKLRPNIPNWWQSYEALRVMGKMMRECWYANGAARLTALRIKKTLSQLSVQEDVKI
Briefly: ACVR1B (ALK4) Kinase screen. As to conditions: Compound concentration 1.0 uM.

In test [6] the target is Epithelial discoidin domain-containing receptor 1 (Homo sapiens) (UniProt Q08345). Briefly: DDR1 Kinase screen. As to conditions: Compound concentration 1.0 uM.
The test system of test [7] is Fibroblast growth factor receptor 3 (Homo sapiens), P22607 [K650E]. Description: FGFR3 K650E Kinase screen. As to conditions: Compound concentration 1.0 uM.
For test [8], the target named is T3, Tyrosine-protein kinase JAK3 (Homo sapiens) (UniProt P52333).
T3 sequence (whole entry): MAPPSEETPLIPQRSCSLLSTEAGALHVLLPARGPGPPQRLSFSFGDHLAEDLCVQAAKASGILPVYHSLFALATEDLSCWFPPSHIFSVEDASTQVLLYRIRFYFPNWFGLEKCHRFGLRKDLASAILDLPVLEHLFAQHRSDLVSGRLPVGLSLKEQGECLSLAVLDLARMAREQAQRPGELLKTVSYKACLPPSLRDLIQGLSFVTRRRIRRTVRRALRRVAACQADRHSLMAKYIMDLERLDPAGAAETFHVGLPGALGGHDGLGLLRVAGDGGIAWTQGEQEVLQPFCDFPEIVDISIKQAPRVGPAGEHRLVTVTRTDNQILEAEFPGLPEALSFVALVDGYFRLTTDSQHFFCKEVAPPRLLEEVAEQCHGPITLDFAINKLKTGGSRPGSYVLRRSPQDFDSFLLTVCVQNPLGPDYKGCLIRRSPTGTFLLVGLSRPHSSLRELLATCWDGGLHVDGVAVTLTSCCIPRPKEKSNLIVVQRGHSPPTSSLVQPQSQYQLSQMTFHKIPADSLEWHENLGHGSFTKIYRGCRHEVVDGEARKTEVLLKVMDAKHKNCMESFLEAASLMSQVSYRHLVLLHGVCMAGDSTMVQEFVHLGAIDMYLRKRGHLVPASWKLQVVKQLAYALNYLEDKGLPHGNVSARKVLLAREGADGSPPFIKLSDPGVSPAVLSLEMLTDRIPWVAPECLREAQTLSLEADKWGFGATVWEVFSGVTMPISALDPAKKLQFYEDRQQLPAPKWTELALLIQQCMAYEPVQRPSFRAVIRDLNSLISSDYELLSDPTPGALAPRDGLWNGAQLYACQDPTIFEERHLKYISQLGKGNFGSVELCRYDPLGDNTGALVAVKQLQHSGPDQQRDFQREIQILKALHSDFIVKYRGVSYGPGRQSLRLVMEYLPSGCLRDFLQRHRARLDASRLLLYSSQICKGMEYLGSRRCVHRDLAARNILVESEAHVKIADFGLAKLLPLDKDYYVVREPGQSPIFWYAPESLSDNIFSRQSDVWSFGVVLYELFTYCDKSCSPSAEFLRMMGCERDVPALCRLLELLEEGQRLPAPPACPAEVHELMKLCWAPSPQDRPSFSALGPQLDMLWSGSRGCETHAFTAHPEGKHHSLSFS
Description: JAK3 Kinase screen. Conditions: Compound concentration 1.0 uM.

Test [9] relates to Platelet-derived growth factor receptor alpha (Homo sapiens), P16234 [V561D]. Briefly: PDGFRA V561D Kinase screen. As to conditions: Compound concentration 1.0 uM.
In test [10] the target is Serine/threonine-protein kinase N1 (Homo sapiens) (UniProt Q16512). Description: PKN1 (PRK1) Kinase screen. Conditions: Compound concentration 1.0 uM.
Serine/threonine-protein kinase N1 (Homo sapiens), sequence (Q16512 2-942 limits assumed): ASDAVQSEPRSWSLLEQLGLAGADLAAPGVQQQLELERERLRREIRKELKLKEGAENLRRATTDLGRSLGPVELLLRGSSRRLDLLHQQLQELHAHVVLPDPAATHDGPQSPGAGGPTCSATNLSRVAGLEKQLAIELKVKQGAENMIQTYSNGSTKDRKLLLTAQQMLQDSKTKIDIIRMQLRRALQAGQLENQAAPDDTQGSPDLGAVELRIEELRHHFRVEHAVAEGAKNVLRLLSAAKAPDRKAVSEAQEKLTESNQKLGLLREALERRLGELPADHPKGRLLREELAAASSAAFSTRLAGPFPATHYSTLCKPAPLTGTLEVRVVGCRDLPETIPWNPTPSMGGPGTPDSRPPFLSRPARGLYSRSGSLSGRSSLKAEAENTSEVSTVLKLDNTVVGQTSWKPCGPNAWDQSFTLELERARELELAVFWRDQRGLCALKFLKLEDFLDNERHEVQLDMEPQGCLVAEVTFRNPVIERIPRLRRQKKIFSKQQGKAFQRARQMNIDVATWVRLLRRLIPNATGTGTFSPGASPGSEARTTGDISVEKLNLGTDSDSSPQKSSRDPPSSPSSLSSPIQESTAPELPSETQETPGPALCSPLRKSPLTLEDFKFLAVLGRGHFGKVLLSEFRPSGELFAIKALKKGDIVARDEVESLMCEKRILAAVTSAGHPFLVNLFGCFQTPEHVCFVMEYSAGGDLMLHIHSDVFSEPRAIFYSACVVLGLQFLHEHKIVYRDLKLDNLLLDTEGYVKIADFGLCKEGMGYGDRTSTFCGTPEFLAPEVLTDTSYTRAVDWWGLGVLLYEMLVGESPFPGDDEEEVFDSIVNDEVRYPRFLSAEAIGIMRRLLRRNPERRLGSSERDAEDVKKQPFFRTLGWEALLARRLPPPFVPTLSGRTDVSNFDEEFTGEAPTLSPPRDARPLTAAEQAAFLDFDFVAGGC
The target in test [11] is Protein kinase C zeta type (Homo sapiens) (UniProt Q05513). Description: PRKCZ (PKC zeta) Kinase screen. Conditions: Compound concentration 1.0 uM.
Protein kinase C zeta type (Homo sapiens), sequence (Q05513 whole entry): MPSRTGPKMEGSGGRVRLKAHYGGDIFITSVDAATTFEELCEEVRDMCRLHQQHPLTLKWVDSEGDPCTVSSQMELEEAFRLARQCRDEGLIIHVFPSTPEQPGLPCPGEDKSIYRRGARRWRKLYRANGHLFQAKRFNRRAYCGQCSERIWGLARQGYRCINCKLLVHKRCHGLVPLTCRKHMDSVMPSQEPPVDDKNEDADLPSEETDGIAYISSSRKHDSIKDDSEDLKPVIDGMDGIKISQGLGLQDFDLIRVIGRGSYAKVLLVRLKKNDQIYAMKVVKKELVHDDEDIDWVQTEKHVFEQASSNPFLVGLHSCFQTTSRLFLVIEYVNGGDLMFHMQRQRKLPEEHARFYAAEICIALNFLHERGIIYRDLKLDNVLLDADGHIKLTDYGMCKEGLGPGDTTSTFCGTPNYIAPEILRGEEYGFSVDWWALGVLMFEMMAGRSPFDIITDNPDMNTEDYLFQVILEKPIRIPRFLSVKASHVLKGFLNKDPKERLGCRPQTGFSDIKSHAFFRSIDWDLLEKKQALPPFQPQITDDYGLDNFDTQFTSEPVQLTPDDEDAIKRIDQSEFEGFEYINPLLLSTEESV
In test [12] the target is Focal adhesion kinase 1 (Homo sapiens) (UniProt Q05397). Description: PTK2 (FAK) Kinase screen. As to conditions: Compound concentration 1.0 uM.
Focal adhesion kinase 1 (Homo sapiens), sequence (Q05397 2-1052 limits assumed): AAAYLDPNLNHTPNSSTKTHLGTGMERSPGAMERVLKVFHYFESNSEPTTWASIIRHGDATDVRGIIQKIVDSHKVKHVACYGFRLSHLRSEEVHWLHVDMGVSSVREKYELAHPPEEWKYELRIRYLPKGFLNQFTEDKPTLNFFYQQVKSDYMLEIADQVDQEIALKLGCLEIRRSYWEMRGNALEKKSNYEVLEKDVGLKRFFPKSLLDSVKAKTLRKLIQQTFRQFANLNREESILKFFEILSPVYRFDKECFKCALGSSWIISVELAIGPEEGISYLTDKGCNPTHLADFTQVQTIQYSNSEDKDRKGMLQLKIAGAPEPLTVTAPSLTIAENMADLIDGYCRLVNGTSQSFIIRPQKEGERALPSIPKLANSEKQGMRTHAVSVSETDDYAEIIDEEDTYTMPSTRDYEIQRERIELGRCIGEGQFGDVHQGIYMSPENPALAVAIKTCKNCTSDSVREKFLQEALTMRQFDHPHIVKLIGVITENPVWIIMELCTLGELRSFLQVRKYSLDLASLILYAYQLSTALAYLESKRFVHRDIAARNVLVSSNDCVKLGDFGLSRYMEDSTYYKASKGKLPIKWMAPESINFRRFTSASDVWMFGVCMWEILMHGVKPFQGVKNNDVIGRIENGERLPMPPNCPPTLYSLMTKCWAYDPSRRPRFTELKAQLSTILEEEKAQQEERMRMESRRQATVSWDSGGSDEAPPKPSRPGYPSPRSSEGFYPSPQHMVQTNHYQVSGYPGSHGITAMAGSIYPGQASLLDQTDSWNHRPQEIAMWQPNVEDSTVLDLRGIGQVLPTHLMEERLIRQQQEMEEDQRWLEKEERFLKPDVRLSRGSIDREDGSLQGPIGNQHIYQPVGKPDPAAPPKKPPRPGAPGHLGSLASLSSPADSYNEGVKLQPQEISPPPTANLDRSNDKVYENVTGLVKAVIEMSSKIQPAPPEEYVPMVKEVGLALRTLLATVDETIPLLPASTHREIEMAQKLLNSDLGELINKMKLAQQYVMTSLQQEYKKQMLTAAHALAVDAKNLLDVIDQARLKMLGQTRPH
Test [13] concerns the target T4, Leucine-rich repeat serine/threonine-protein kinase 2 (Homo sapiens, UniProt Q5S007). Briefly: LRRK2 Biochemical Assay.
Test [14] concerns the target T4, Leucine-rich repeat serine/threonine-protein kinase 2. As to conditions: Compound concentration 1000.0 nM.
Test [15] deals with Muscarinic acetylcholine receptor M2 (Homo sapiens) (UniProt P08172). Conditions: Compound concentration 10.0 uM.

T4 sequence (Q5S007 whole entry): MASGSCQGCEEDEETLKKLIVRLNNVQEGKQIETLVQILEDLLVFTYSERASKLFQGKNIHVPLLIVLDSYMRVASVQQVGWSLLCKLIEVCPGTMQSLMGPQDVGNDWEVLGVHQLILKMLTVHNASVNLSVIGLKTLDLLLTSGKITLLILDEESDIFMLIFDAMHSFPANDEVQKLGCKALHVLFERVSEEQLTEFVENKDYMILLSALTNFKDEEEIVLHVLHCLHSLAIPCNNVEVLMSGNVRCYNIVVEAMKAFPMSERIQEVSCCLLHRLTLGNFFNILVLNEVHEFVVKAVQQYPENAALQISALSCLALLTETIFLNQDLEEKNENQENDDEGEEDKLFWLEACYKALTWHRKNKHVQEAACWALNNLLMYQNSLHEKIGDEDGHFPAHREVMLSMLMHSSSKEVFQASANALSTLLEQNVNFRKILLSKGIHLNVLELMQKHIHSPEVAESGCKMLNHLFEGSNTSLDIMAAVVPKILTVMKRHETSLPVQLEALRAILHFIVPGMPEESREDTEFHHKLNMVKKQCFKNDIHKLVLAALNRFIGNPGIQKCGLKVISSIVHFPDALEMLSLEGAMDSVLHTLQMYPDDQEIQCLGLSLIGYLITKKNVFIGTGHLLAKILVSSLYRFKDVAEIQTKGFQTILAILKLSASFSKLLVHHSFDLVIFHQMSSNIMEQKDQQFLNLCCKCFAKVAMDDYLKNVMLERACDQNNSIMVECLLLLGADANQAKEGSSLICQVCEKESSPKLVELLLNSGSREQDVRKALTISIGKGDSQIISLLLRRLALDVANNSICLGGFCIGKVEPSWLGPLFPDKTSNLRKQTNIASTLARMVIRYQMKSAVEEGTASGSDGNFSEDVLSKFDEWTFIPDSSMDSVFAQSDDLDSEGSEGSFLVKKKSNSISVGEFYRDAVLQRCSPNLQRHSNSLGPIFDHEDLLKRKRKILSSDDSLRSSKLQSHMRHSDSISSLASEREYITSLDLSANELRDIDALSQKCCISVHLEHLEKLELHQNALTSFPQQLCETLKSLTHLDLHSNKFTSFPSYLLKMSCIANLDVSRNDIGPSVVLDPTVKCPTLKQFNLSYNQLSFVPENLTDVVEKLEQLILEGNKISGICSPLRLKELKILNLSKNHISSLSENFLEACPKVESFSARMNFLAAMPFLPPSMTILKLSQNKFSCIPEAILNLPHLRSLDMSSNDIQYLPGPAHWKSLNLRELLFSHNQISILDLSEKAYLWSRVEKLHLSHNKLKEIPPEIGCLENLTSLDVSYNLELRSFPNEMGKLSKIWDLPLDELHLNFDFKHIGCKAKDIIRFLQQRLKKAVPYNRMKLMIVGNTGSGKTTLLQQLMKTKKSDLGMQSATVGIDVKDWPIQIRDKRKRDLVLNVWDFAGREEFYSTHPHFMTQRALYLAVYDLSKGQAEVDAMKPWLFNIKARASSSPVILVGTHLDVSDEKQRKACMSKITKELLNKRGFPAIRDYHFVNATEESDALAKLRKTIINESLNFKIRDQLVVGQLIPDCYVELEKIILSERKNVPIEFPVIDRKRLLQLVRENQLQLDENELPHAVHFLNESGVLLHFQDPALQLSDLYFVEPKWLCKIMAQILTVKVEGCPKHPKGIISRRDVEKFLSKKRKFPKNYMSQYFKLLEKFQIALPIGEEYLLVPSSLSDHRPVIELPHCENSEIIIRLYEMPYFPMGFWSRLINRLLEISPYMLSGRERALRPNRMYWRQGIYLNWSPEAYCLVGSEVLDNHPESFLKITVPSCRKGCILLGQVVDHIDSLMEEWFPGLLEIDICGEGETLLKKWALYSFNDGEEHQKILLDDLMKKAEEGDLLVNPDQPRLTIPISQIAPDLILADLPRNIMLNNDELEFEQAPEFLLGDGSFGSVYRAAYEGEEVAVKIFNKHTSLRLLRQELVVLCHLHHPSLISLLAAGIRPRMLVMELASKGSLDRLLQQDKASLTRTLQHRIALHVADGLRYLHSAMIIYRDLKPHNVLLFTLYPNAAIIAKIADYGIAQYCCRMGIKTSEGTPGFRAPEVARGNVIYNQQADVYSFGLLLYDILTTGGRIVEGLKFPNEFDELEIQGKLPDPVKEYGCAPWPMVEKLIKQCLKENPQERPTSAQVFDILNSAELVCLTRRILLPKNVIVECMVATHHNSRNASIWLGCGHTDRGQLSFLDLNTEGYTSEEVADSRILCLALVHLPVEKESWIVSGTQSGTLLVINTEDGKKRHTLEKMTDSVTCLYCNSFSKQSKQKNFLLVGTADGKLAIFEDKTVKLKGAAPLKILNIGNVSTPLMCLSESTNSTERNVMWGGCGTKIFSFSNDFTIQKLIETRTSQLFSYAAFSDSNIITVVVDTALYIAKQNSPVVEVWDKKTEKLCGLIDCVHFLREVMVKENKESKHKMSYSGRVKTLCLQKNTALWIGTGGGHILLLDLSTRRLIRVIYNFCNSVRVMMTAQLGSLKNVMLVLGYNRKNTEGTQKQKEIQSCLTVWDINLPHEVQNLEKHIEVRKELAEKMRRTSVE

One may read the inhibition as the drop in the measured response relative to a control, in per cent. With `C[C@@H]1CN(c2cc(-c3n[nH]c4ccc(OC5(C)CC5)cc34)ncn2)C[C@H](C)O1` [MLi-2], the inhibition in [1] was 1%; in test [2] it was -6%; in [3] it was 4.45%; in [4], 0.91%; in test [5], -0.724%; in test [6], 0.893%. The inhibition was 3.43% in test [7]; 7.05% in test [8]; 8.06% in test [9]; 1.46% in test [10]; -4.02% in test [11]; 14.2% in [12].

In general, IC50 refers to the concentration that inhibits the measured activity by half. A low value points to higher potency. The term residual activity denotes the signal under treatment as a percentage of the control signal. With `C[C@@H]1CN(c2cc(-c3nn(C)c4ccc(OC5(C)CC5)cc34)ncn2)C[C@H](C)O1` [MLi-2-NC], the IC50 in test [13] is listed as 6.48 µM (not active). The residual activity in test [14] is 22%. Further, in test [15], the inhibition was 21%.
